Laboratory results as given in PubChem BioAssay (NCI).
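Method: 48-hour compound exposure of cells in 96-well plates, five concentrations, linear interpolation of endpoints. TGI: concentration producing complete growth inhibition.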

How the values were obtained:
Assay in all cases: DTP human tumour cell line panel, 48 h
HCT-15 colon = system: HCT-15 colon
EKVX NSCLC = system: EKVX NSCLC
HCT-116 colon = system: HCT-116 colon
U251 CNS = system: U251 CNS
SNB-19 CNS = system: SNB-19 CNS
SR leukemia = system: SR leukemia
PC-3 prostate = system: PC-3 prostate
OVCAR-5 ovarian = system: OVCAR-5 ovarian
HT29 colon = system: HT29 colon
KM12 colon = system: KM12 colon
SN12C renal = system: SN12C renal
SK-OV-3 ovarian = system: SK-OV-3 ovarian
UO-31 renal = system: UO-31 renal
ACHN renal = system: ACHN renal
T-47D breast = system: T-47D breast
SNB-75 CNS = system: SNB-75 CNS
NCI-H23 lung = system: NCI-H23 lung
UACC-62 melanoma = system: UACC-62 melanoma
HL-60(TB) leukemia = system: HL-60(TB) leukemia
HCC-2998 colon = system: HCC-2998 colon
LOX IMVI melanoma = system: LOX IMVI melanoma
OVCAR-3 ovarian = system: OVCAR-3 ovarian
NCI-H522 lung = system: NCI-H522 lung
M14 melanoma = system: M14 melanoma
CCRF-CEM leukemia = system: CCRF-CEM leukemia
RPMI-8226 leukemia = system: RPMI-8226 leukemia
NCI-H460 lung = system: NCI-H460 lung
CAKI-1 renal = system: CAKI-1 renal
SF-539 CNS = system: SF-539 CNS
HS 578T breast = system: HS 578T breast
MDA-MB-231 breast = system: MDA-MB-231 breast
HOP-92 NSCLC = system: HOP-92 NSCLC
786-0 renal = system: 786-0 renal
OVCAR-8 ovarian = system: OVCAR-8 ovarian
MALME-3M melanoma = system: MALME-3M melanoma
IGROV1 ovarian = system: IGROV1 ovarian
COLO 205 colon = system: COLO 205 colon
SF-268 CNS = system: SF-268 CNS
SW-620 colon = system: SW-620 colon
SK-MEL-2 melanoma = system: SK-MEL-2 melanoma
NCI/ADR-RES ovarian = system: NCI/ADR-RES ovarian
TK-10 renal = system: TK-10 renal
DU-145 prostate = system: DU-145 prostate
BT-549 breast = system: BT-549 breast
MDA-N = system: MDA-N
A549 NSCLC = system: A549 NSCLC
HOP-62 NSCLC = system: HOP-62 NSCLC
MCF7 breast = system: MCF7 breast
K-562 leukemia = system: K-562 leukemia
SK-MEL-28 melanoma = system: SK-MEL-28 melanoma
A498 renal = system: A498 renal
SF-295 CNS = system: SF-295 CNS
OVCAR-4 ovarian = system: OVCAR-4 ovarian
MDA-MB-435 = system: MDA-MB-435
RXF 393 renal = system: RXF 393 renal
NCI-H226 lung = system: NCI-H226 lung
UACC-257 melanoma = system: UACC-257 melanoma
MOLT-4 leukemia = system: MOLT-4 leukemia
SK-MEL-5 melanoma = system: SK-MEL-5 melanoma

COc1cc(C2c3cc4c(cc3CC3COC(=O)N32)OCO4)cc(OC)c1OC (stereo not drawn)
TGI (HCT-15 colon): > 27.9 µM | TGI (EKVX NSCLC): > 100 µM | TGI (HCT-116 colon): > 100 µM | TGI (U251 CNS): > 31.6 µM | TGI (SNB-19 CNS): > 100 µM | TGI (SR leukemia): > 28.7 µM | TGI (PC-3 prostate): > 100 µM | TGI (OVCAR-5 ovarian): > 100 µM | TGI (HT29 colon): 5.14 µM | TGI (KM12 colon): > 61.7 µM | TGI (SN12C renal): > 48.1 µM | TGI (SK-OV-3 ovarian): > 100 µM | TGI (UO-31 renal): > 100 µM | TGI (ACHN renal): > 100 µM | TGI (T-47D breast): > 100 µM | TGI (SNB-75 CNS): > 100 µM | TGI (NCI-H23 lung): > 31.6 µM | TGI (UACC-62 melanoma): > 100 µM | TGI (HL-60(TB) leukemia): 8.6 µM | TGI (HCC-2998 colon): 8.7 µM | TGI (LOX IMVI melanoma): > 100 µM | TGI (OVCAR-3 ovarian): 5.05 µM | TGI (NCI-H522 lung): 5.66 µM | TGI (M14 melanoma): > 100 µM | TGI (CCRF-CEM leukemia): > 36.4 µM | TGI (RPMI-8226 leukemia): > 100 µM | TGI (NCI-H460 lung): > 100 µM | TGI (CAKI-1 renal): > 100 µM | TGI (SF-539 CNS): 5.8 µM | TGI (HS 578T breast): > 57.2 µM | TGI (MDA-MB-231 breast): 30 µM | TGI (HOP-92 NSCLC): > 94.9 µM | TGI (786-0 renal): > 100 µM | TGI (OVCAR-8 ovarian): > 100 µM | TGI (MALME-3M melanoma): > 100 µM | TGI (IGROV1 ovarian): > 100 µM | TGI (COLO 205 colon): 4.89 µM | TGI (SF-268 CNS): > 100 µM | TGI (SW-620 colon): > 100 µM | TGI (SK-MEL-2 melanoma): > 100 µM | TGI (NCI/ADR-RES ovarian): 4.26 µM | TGI (TK-10 renal): > 100 µM | TGI (DU-145 prostate): > 100 µM | TGI (BT-549 breast): > 100 µM | TGI (MDA-N): 1.28 µM | TGI (A549 NSCLC): > 100 µM | TGI (HOP-62 NSCLC): > 100 µM | TGI (MCF7 breast): > 100 µM | TGI (K-562 leukemia): > 100 µM | TGI (SK-MEL-28 melanoma): > 100 µM | TGI (A498 renal): > 100 µM | TGI (SF-295 CNS): 5.35 µM | TGI (OVCAR-4 ovarian): > 100 µM | TGI (MDA-MB-435): 1.44 µM | TGI (RXF 393 renal): > 100 µM | TGI (NCI-H226 lung): > 92.5 µM | TGI (UACC-257 melanoma): > 100 µM | TGI (MOLT-4 leukemia): > 61.8 µM | TGI (SK-MEL-5 melanoma): 35.6 µM

CCOC(=O)C1C(=O)CC(O)(c2ccccc2)C(C(=O)OCC)C1c1ccc(N(C)C)cc1 (stereo not drawn)
TGI (HCT-15 colon): > 100 µM | TGI (EKVX NSCLC): > 100 µM | TGI (HCT-116 colon): > 100 µM | TGI (U251 CNS): > 81.2 µM | TGI (SNB-19 CNS): > 79.9 µM | TGI (SR leukemia): 49.1 µM | TGI (PC-3 prostate): > 100 µM | TGI (OVCAR-5 ovarian): > 100 µM | TGI (HT29 colon): > 58.5 µM | TGI (KM12 colon): > 100 µM | TGI (SN12C renal): > 100 µM | TGI (SK-OV-3 ovarian): 52 µM | TGI (UO-31 renal): > 100 µM | TGI (ACHN renal): > 100 µM | TGI (T-47D breast): > 92.5 µM | TGI (SNB-75 CNS): 64.9 µM | TGI (NCI-H23 lung): > 93.9 µM | TGI (UACC-62 melanoma): > 100 µM | TGI (HL-60(TB) leukemia): 40 µM | TGI (HCC-2998 colon): > 100 µM | TGI (LOX IMVI melanoma): > 100 µM | TGI (OVCAR-3 ovarian): > 75.1 µM | TGI (NCI-H522 lung): 30.7 µM | TGI (M14 melanoma): > 100 µM | TGI (CCRF-CEM leukemia): > 65.1 µM | TGI (RPMI-8226 leukemia): 37.4 µM | TGI (NCI-H460 lung): > 83.8 µM | TGI (CAKI-1 renal): > 100 µM | TGI (SF-539 CNS): 37 µM | TGI (HS 578T breast): 23.1 µM | TGI (MDA-MB-231 breast): > 77.1 µM | TGI (HOP-92 NSCLC): > 81.7 µM | TGI (786-0 renal): > 100 µM | TGI (OVCAR-8 ovarian): > 65.9 µM | TGI (MALME-3M melanoma): > 85.6 µM | TGI (IGROV1 ovarian): > 100 µM | TGI (COLO 205 colon): 53.5 µM | TGI (SF-268 CNS): > 93.5 µM | TGI (SW-620 colon): > 100 µM | TGI (SK-MEL-2 melanoma): > 94 µM | TGI (NCI/ADR-RES ovarian): > 78.2 µM | TGI (TK-10 renal): > 100 µM | TGI (DU-145 prostate): > 100 µM | TGI (BT-549 breast): > 100 µM | TGI (MDA-N): 33.7 µM | TGI (A549 NSCLC): > 100 µM | TGI (HOP-62 NSCLC): > 88.8 µM | TGI (MCF7 breast): > 100 µM | TGI (K-562 leukemia): > 100 µM | TGI (SK-MEL-28 melanoma): > 100 µM | TGI (A498 renal): > 100 µM | TGI (SF-295 CNS): 29.8 µM | TGI (OVCAR-4 ovarian): > 100 µM | TGI (MDA-MB-435): 25.9 µM | TGI (RXF 393 renal): 44.4 µM | TGI (NCI-H226 lung): > 100 µM | TGI (UACC-257 melanoma): > 100 µM | TGI (MOLT-4 leukemia): > 84.1 µM | TGI (SK-MEL-5 melanoma): 72.3 µM
